From patent US20240252694A1, “CONJUGATES COMPRISING COVALENT BINDERS FOR TARGETING INTRACELLULAR KRAS G12C PROTEINS” (RayzeBio, Inc., priority 2021, published 2024)
pIC50: −log10 of the molar value. Read-outs that look alike come from different tables or passages of the source.

Tests used:
[1] = test system: human ERK1 dually phosphorylated at T202/Y204 and ERK2; assay: Phosphorylated ERK1/ERK2 ELISA; assay type: cell-based; conditions: phosphorylated ERK in cell lysates after treatment with compounds, sandwich ELISA, cell line not stated
Experimental: An ERK phosphorylation ELISA kit was used to characterize compounds for KRAS-based cell activity. The sandwich ELISA (RnD Systems. Catalog #DYC1018B) measures human ERK1 that is dually phosphorylated at T202/Y204 and ERK2. Cell lysates from cells before and after treatment with compounds were prepared using kit manufacturer protocols.
All reagents were prepared following the kit's protocol. The wells of a 96-well microtiter plate were coated with 100 μL of 8.0 μg/mL of capture antibody in PBS. The plate was sealed and left to incubate overnight at ambient temperature. After incubation, the wells were washed with 400 μL of Wash Buffer for a total of 3 washes. Wells were then blocked by adding 300 μL of Block Buffer to each well and incubated at ambient temperature for 1-2 hours. After removal of the Block Buffer by aspirating and washing, 100 μL of standards and samples were added to the plate in duplicates and incubated for 2 hours at ambient temperature. The aspiration and wash steps were repeated to remove unbound standard and samples and 100 μL of 400 ng/mL detection antibody was applied to each well. After 2 hours at ambient temperature, detection antibody was removed by washing and 100 μL of Streptavidin-HRP was added to each well. Incubation of Streptavidin-HRP was at ambient temperature for 20 minutes, after which Streptavidin-HRP was removed by washing, 100 μL of Substrate Solution was added to each well and incubated for 20 minutes before 50 μL of Stop Solution was added to each well.
The optical density of each well was immediately analyzed at 450 nm with a wavelength correction at 540 nm. The standards were plotted by averaging the optical density for each replicate and fitted with a four-parameter logistic curve fit. Concentrations of phosphorylated ERK in cell lysate samples were determined by extrapolation from the standard curve and then adjusted for any dilution factors.

KRAS (G12C) = molecular target: T1, KRAS (G12C) (Homo sapiens, UniProt P01116, G12C); assay: KRAS G12C Nucleotide Exchange Assay (fixed GTP concentration); assay type: biochemical
T1 construct: purchased BPS Bioscience 79859
T1 sequence (P01116 1-188 isoform P01116-2 G12C): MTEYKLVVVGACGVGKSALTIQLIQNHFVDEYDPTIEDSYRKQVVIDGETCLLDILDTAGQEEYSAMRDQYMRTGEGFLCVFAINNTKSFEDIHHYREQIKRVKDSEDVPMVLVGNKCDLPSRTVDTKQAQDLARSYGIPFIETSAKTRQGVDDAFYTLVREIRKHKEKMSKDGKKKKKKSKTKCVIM
Experimental: A KRAS (G12C) Nucleotide Exchange Assay kit was used to evaluate compound antagonistic binding. The assay kit (BPS Bioscience. Catalog #79859) utilizes KRAS (G12C) labeled with BODIPY-GDP to determine if compounds can affect the nucleotide exchange (GDP to GTP) in KRAS signaling, Compounds were typically characterized using both protocols: fixed GTP concentrations and fixed inhibitor concentrations.
All reagents were prepared following manufacturer's protocol. 5 μL BODIPY-GDP and 10 μL of KRAS buffer were added to each well. A 3-fold serial dilution of compound in 5% DMSO was prepared. Typically, compounds were tested in the range of 0 μM to 50 μM, but the range could be modified depending on the characterization needs. 5 μL of diluted compound was added to the wells and the plate was centrifuged briefly to ensure all components were mixed before incubation at ambient temperature. After incubation for 2 hours, 10 μM GTP and 25 mM EDTA were mixed at a 1:1 ratio and 5 μL was added to the wells. The plate was then incubated for 1 hour at ambient temperature. After incubation, fluorescence was measured at […].
Data was analyzed by plotting fluorescence vs GTP concentration for control wells and compound wells.

[2] = KRAS (G12C) labeled with BODIPY-GDP, fixed GTP concentration, 2 hours compound incubation, fluorescence readout, read-out: IC50

Row | pIC50 ([1]; Homo sapiens) | Compound | also measured
1 |  | C=CC(=O)N1CCN(c2nc(OC[C@@H]3CCCN3CCCCCCNC(=O)CN3CCN(CC(=O)O)CCN(CC(=O)O)CCN(CC(=O)O)CC3)nc3c2CCN(c2cccc4cccc(Cl)c24)C3)C[C@@H]1CC#N [CHL-001, 2-[4,7-bis(carboxymethyl)-10-[2-[6-[(2S)-2-[[7-(8-chloro-1-naphthyl)-4-[(3S)-3-(cyanomethyl)-4-prop-2-enoyl-piperazin-1-yl]-6,8-dihydro-5H-pyrido[3,4-d]pyrimidin-2-yl]oxymethyl]pyrrolidin-1-yl]hexylamino]-2-oxo-ethyl]-1,4,7,10-tetrazacyclododec-1-yl]acetic acid] | pIC50 [1]: ≤ 5.00
2 | 6.00 to 7.00 | C=CC(=O)N1CCN(c2nc(OC[C@@H]3CCCN3CCOCc3cccc(I)c3)nc3c2CCN(c2cccc4cccc(Cl)c24)C3)C[C@@H]1CC#N [Ex-1, 2-[(2S)-4-[7-(8-chloro-1-naphthyl)-2-[[(2S)-1-[2-[(3-iodophenyl)methoxy]ethyl]pyrrolidin-2-yl]methoxy]-6,8-dihydro-5H-pyrido[3,4-d]pyrimidin-4-yl]-1-prop-2-enoyl-piperazin-2-yl]acetonitrile] | 
3 | 6.00 to 7.00 | C=CC(=O)N1CCN(c2nc(OC[C@@H]3CCCN3CCCOCc3cccc(I)c3)nc3c2CCN(c2cccc4cccc(Cl)c24)C3)C[C@@H]1CC#N [Ex-2, 2-[(2S)-4-[7-(8-chloro-1-naphthyl)-2-[[(2S)-1-[3-[(3-iodophenyl)methoxy]propyl]pyrrolidin-2-yl]methoxy]-6,8-dihydro-5H-pyrido[3,4-d]pyrimidin-4-yl]-1-prop-2-enoyl-piperazin-2-yl]acetonitrile] | pIC50 (KRAS (G12C); [2]): 5.00 to 6.00
4 | 6.00 to 7.00 | C=CC(=O)N1CCN(c2nc(OC[C@@H]3CCCN3CCCCOCc3cccc(I)c3)nc3c2CCN(c2cccc4cccc(Cl)c24)C3)C[C@@H]1CC#N [Ex-3] | pIC50 (KRAS (G12C); [2]): 5.00 to 6.00
5 | > 7.00 | C=CC(=O)N1CCN(c2nc(OC[C@@H]3CCCN3CCCOC(=O)c3cccc(I)c3)nc3c2CCN(c2cccc4cccc(Cl)c24)C3)C[C@@H]1CC#N [Ex-4] | 
6 | 5.00 to 6.00 | C=CC(=O)N1CCN(c2nc(OC[C@@H]3CCCN3CCCNC(=O)c3cccc(I)c3)nc3c2CCN(c2cccc4cccc(Cl)c24)C3)C[C@@H]1CC#N [Ex-5, N-[3-[(2S)-2-[[7-(8-chloro-1-naphthyl)-4-[(3S)-3-(cyanomethyl)-4-prop-2-enoyl-piperazin-1-yl]-6,8-dihydro-5H-pyrido[3,4-d]pyrimidin-2-yl]oxymethyl]pyrrolidin-1-yl]propyl]-3-iodo-benzamide] | pIC50 (KRAS (G12C); [2]): 5.00 to 6.00
7 | > 7.00 | C=CC(=O)N1CCN(c2nc(OC[C@@H]3CCCN3CCCC(=O)OCc3cccc(I)c3)nc3c2CCN(c2cccc4cccc(Cl)c24)C3)C[C@@H]1CC#N [Ex-6, (3-iodophenyl)methyl 4-[(2S)-2-[[7-(8-chloro-1-naphthyl)-4-[(3S)-3-(cyanomethyl)-4-prop-2-enoyl-piperazin-1-yl]-6,8-dihydro-5H-pyrido[3,4-d]pyrimidin-2-yl]oxymethyl]pyrrolidin-1-yl]butanoate] | 
8 | 6.00 to 7.00 | C=CC(=O)N1CCN(c2nc(OC[C@@H]3CCCN3CCC(C)(C)OC(=O)c3cccc(I)c3)nc3c2CCN(c2cccc4cccc(Cl)c24)C3)C[C@@H]1CC#N [Ex-8, [3-[(2S)-2-[[7-(8-chloro-1-naphthyl)-4-[(3S)-3-(cyanomethyl)-4-prop-2-enoyl-piperazin-1-yl]-6,8-dihydro-5Hpyrido[3,4-d]pyrimidin-2-yl]oxymethyl]pyrrolidin-1-yl]-1,1-dimethyl-propyl]3-iodobenzoate] | 
9 | > 7.00 | C=CC(=O)N1CCN(c2nc(OC[C@@H]3CCCN3C)nc3c2CCN(c2cccc4cccc(I)c24)C3)C[C@@H]1CC#N [Ex-9, 2-[(2S)-4-[7-(8-iodo-1-naphthyl)-2-[[(2S)-1-methylpyrrolidin-2-yl]methoxy]-6,8-dihydro-5H-pyrido[3,4-d]pyrimidin-4-yl]-1-prop-2-enoyl-piperazin-2-yl]acetonitrile] | pIC50 (KRAS (G12C); [2]): 5.00 to 6.00
10 | > 7.00 | C=CC(=O)N1CCN(c2nc(OC[C@@H]3CCCN3CCC(=O)O)nc3c2CCN(c2cccc4cccc(I)c24)C3)C[C@@H]1CC#N [Ex-10] | 
11 | > 7.00 | C=CC(=O)N1CCN(c2nc(OC[C@@H]3CCCN3CCCC(=O)O)nc3c2CCN(c2cccc4cccc(I)c24)C3)C[C@@H]1CC#N [Ex-11, 4-[(2S)-2-[[4-[(3S)-3-(cyanomethyl)-4-prop-2-enoyl-piperazin-1-yl]-7-(8-iodo-1-naphthyl)-6,8-dihydro-5H-pyrido(3,4-d]pyrimidin-2-yl]oxymethyl]pyrrolidin-1-yl]butanoic acid] | 
12 | > 7.00 | C=CC(=O)N1CCN(c2nc(OC[C@@H]3CCCN3CCC(C)(C)C(=O)O)nc3c2CCN(c2cccc4cccc(I)c24)C3)C[C@@H]1CC#N [Ex-12, 4-[(2S)-2-[[4-[(3S)-3-(cyanomethyl)-4-pop-2-enoyl-piperazin-1-yl]-7-(8-iodo-1-naphthyl)-6,8-dihydro-5H-pyrido[3,4-d]pyrimidin-2-yl]oxymethyl]pyrrolidin-1-yl]-2,2-dimethyl-butanoic acid] | 
13 | > 7.00 | C=CC(=O)N1CCN(c2nc(OC[C@@H]3CCCN3CC(O)CO)nc3c2CCN(c2cccc4cccc(I)c24)C3)C[C@@H]1CC#N (some centres unmarked) [Ex-13] | 
14 | > 7.00 | C=CC(=O)N1CCN(c2nc(OC[C@@H]3CCCN3CC(CO)CO)nc3c2CCN(c2cccc4cccc(I)c24)C3)C[C@@H]1CC#N [Ex-14, 2-[(2S)-4-[2-[I(2S)-1-[3-hydroxy-2-(hydroxymethyl)propylpyrrolidin-2-yl]methoxy]-7-(8-iodo-1-naphthyl)-6,8-dihydro-5H-pyrido(3,4-d]pyrimidin-4-yl]-1-prop-2-enoyl-piperazin-2-yl]acetonitrile] | 
15 |  | C=CC(=O)N1CCN(c2nc(OC[C@@H]3CCCN3CCCCCCNC(=O)CN3CCN4CCN5CCN(CC3)CC(=O)[O][Lu]([O]C(=O)C4)[O]C(=O)C5)nc3c2CCN(c2cccc4cccc(Cl)c24)C3)C[C@@H]1CC#N [Lu-CHL-001, N-[6-[(2S)-2-[[7-(8-chloro-1-naphthyl)-4-[(3 S)-3-(cyanomethyl)-4-prop-2-enoyl-piperazin-1-yl]-6,8-dihydro-5H-pyrido[3,4-d]pyrimidin-2-yl]oxymethyl]pyrrolidin-1-yl]hexyl]-2-(3,16,19-trioxo-2,17,18-trioxa-5,8,11,14-tetraza-1λ3-lutetatricyclo[9,6,3,25,14]docosan-8-yl)acetamide] | pIC50 (KRAS (G12C)): 5.00 to 6.00; pIC50 [1]: 5.00 to 6.00
16 |  | C=CC(=O)N1CCN(c2nc(OC[C@@H]3CCCN3CCNC(=O)CN3CCN4CCN5CCN(CC3)CC(=O)[O][Lu]([O]C(=O)C4)[O]C(=O)C5)nc3c2CCN(c2cccc4cccc(Cl)c24)C3)C[C@@H]1CC#N [Lu-CHL-002, N-[2-[(2S)-2-[[7-(8-chloro-1-naphthyl)-4-[(3S)-3-(cyanomethyl)-4-prop-2-enoyl-piperazin-1-yl]-6,8-dihydro-5H-pyrido[3,4-d]pyrimidin-2-yl]oxymethyl]pyrrolidin-1-yl]ethyl]-2-(3,16,19-trioxo-2,17,18-trioxa-5.8,11,14-tetraza-1λ3-lutetatricyclo[9.6.3,25,14]docosan-8-yl)acetamide] | pIC50 (KRAS (G12C); [2]): 5.00 to 6.00; pIC50 [1]: 5.00 to 6.00
17 |  | N-[4-[(2S)-2-[[7-(8-chloro-1-naphthyl)-4-[(3S)-3-(cyanomethyl)-4-prop-2-enoyl-piperazin-1-yl]-6,8-dihydro-5H-pyrido[3,4-d]pyrimidin-2yl]oxymethyl]pyrrolidin-1-yl]butyL]1J-2-[(6S,9S, 12S, 21 S)-6,9,12,21-tetraethyl-3,16,19-trioxo-2,17,18-trioxa-5,8,11,14-tetraza-17,3-lutetatricyclo[9.6.3,25,14]docosan-8-yl]acetamide [Lu-CHL-005] | pIC50 [1]: 6.00 to 7.00
